IC50 data for 48 molecules are collected here from patent US20250188079A1, “INHIBITING CYCLIC AMP-RESPONSIVE ELEMENT-BINDING PROTEIN (CREB)” (Forma Therapeutics, Inc., priority 2019, published 2025).

Sequence of CBP (Q92793 1085-1192): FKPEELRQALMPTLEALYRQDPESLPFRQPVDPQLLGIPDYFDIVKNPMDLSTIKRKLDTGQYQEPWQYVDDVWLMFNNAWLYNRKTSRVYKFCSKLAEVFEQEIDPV

The target in this assay is CBP (Homo sapiens (Human), UniProt Q92793). The assay is described as follows: HTRF biochemical assay for CBP activity (TR-FRET, bromodomain). The assay is classed as binding. As to conditions: geometric mean, 10-point 3-fold dilution 33 μM to 1.7 nM, read-out: BROMO IC50 TRF TB CBP (μM gmean). The protocol:
Example 1: HTRF Biochemical Assay for CBP Activity
The assay was performed in a final volume of 6 μL in assay buffer containing 50 mM Hepes (pH 7.5, (0.5M Hepes, pH 7.5 solution; Teknova H1575)), 0.5 mM GSH, 0.01% BGG (0.22 p M filtered, Sigma, G7516-25G), 0.005% BSA (0.22 μM filtered, EMD Millipore Corporation, 126575) and 0.01% Triton X-100 (Sigma, T9284-10L). Nanoliter quantities of 10-point, 3-fold serial dilution in DMSO were pre-dispensed into 1536 assay plates (Corning, #3724BC) for a final test concentration of 33 μM to 1.7 nM, top to lowest dose, respectively. 3 μL of 2×Protein and 3 μL of 2×Peptide Ligand were added to assay plates (pre-stamped with compound). Plates were incubated for varying times at room temperature prior to measuring the signal. TR-FRET (Time-Resolved Fluorescence Resonance Energy Transfer) was measured on the PHERAstar (BMG, equipped with HTRF optic module [337/520/490]) or on the Envision (PerkinElmer, equipped with the TRF Laser unit, TRF dual mirror D400/D505 and emission filters M520 and M495). Data were reported as percent inhibition compared with control wells based on the following equation: % inh=1−((TR-FRET ratio−AveLow)/(AveHigh−AveLow)) where TR-FRET ratio=(Fluorescence at 520 nm/Fluorescence at 490 nm)*10000), AveLow=average TR-FRET ratio of no enzyme control (n=32), and AveHigh=average TR-FRET ratio of DMSO control (n=32). IC50 values were determined by curve fitting of the standard 4 parameter logistic fitting algorithm included in the Activity Base software package: IDBS XE Designer Model205. Data is fitted using the Levenburg Marquardt algorithm. As set forth in Table 2 below, an IC50 value of greater than or equal to 0.001 μM and less than or equal to 0.01 μM is marked “++++”; a value greater than 0.01 μM and less than or equal to 0.1 μM is marked “+++”; a value greater than 0.1 μM and less than or equal to 1 μM is marked “++”; and a value greater than 1 μM and less than 1000 μM is marked “+.” Compounds that were not tested in a particular assay are marked “NT.”
A general note: TR-FRET usually uses a lanthanide donor and a delayed reading to cut background.
For orientation: IC50 means the concentration at which inhibition is half-maximal. Consider `COC(=O)N1CCc2c(C(=O)O)cc3c(nc(C4CCCCC4)n3[C@@H](C)Cc3ccccc3)c2C1` [Compound 67], for which the IC50 was in the range of 0.001 to 0.01 µM.

In the case of `COC(=O)N1CCc2ccc3c(nc(C4CCCCC4)n3CC[C@H]3CCC[C@H](C(=O)O)C3)c2C1` [Compound 172], the IC50 was 0.001 to 0.01 µM.

Take `COC(=O)N1CCc2ccc3c(nc([C@H]4CCC[C@H](C(=O)O)C4)n3[C@H](C)Cc3ccccc3Cl)c2C1` (single isomer, unassigned) [Compound 176]: the IC50 is 0.01 to 0.1 µM.

For the molecule `COC(=O)N1CCc2ccc3c(nc(N4CCN(S(C)(=O)=O)CC4)n3[C@@H](C)Cn3cc(Cl)cn3)c2C1` [Compound 66], the IC50 lay in the range of 0.001 to 0.01 µM.

Regarding `COC(=O)N1CCc2ccc3c(nc([C@H]4CC[C@H](C(=O)O)CC4)n3[C@@H](C)C[C@@H]3CCCCO3)c2C1` [Compound 260], the IC50 is 0.01 to 0.1 µM.

As to “(1S,3S)-3-[3-[(2S)-1-(3,4-difluorophenyl)propan-2-yl]-8-(methoxycarbonyl)-3H,6H,7H,8H,9H-imidazo[4,5-h]isoquinolin-2-yl]cyclohexane-1-carboxylic acid [Compound 60]”, the IC50 was 0.001 to 0.01 µM.

As to `COC(=O)N1CCc2ccc3c(nc(-c4ccc(C(C)(C)C(=O)O)cc4)n3[C@@H](C)Cn3cc(Cl)cn3)c2C1` [Compound 258], the IC50 lay in the range of 0.01 to 0.1 µM.

Turning to `COC(=O)N1CCc2ccc3c(nc(C4CS(=O)(=O)C4)n3CCc3ccccc3)c2C1` [Compound 342], the IC50 lay in the range of 0.1 to 1 µM.

For `COC(=O)N1CCc2ccc3c(nc(N4CCC[C@@H](C(=O)O)C4)n3C[C@@H](C)c3ccccc3)c2C1` [Compound 165], the IC50 was in the range of 0.001 to 0.01 µM.

Regarding `COC(=O)N1CCc2ccc3c(nc(C4CCCCC4)n3C[C@@H](C(=O)O)c3cc(F)ccc3OC)c2C1` [Compound 240], the IC50 lay within 0.01 to 0.1 µM.

Turning to `COC(=O)N1CCc2ccc3c(nc([C@H]4CC[C@H](C(=O)O)CC4)n3[C@H](C)Cc3ccc4c(c3)CCO4)c2C1` [Compound 332], the IC50 was in the range of 0.1 to 1 µM.

Consider `COC(=O)N1CCc2ccc3c(nc(N4CCC(C(=O)O)CC4)n3[C@@H](C)Cn3cc(C(F)(F)F)cn3)c2C1` [Compound 46], for which the IC50 lay in the range of 0.001 to 0.01 µM.

As for `COC(=O)N1CCc2ccc3c(nc([C@H]4CC[C@H](C(=O)O)CC4)n3C[C@H](OC)c3ccccc3)c2C1` [Compound 191], the IC50 lay within 0.01 to 0.1 µM.

In the case of `COC(=O)N1CCc2ccc3c(nc([C@H]4C[C@@H](C(=O)O)C4)n3[C@H](C)Cc3ccccc3C)c2C1` [Compound 340], the IC50 is 0.1 to 1 µM.

In the case of `COC(=O)N1CCc2ccc3c(nc(C4CCCCC4)n3C[C@](C)(C(=O)O)c3ccccc3)c2C1` [Compound 135], the IC50 is 0.001 to 0.01 µM.

As to `COC(=O)N1CCc2ccc3c(nc(N4CCC(C(=O)O)CC4)n3[C@@H](C)Cc3cc(F)cc(F)c3)c2C1` [Compound 45], the IC50 lay within 0.001 to 0.01 µM.

In the case of `COC(=O)N1CCc2ccc3c(nc(C4CCNCC4)n3CCc3ccccc3)c2C1` [Compound 345], the IC50 was in the range of 0.1 to 1 µM.

Regarding `COC(=O)N1CCc2ccc3c(nc(C4CCCCC4)n3C[C@H]3CC[C@H](C(=O)O)CC3)c2C1` [Compound 83], the IC50 fell in the range of 0.001 to 0.01 µM.

For `COC(=O)N1CCc2ccc3c(nc([C@H]4CC[C@H](C(=O)NS(C)(=O)=O)CC4)n3[C@H](C)Cc3ccccc3)c2C1` (single isomer, unassigned) [Compound 290], the IC50 lay in the range of 0.1 to 1 µM.

As for `COC(=O)N1CCc2ccc3c(nc(N4CC[C@H](C(=O)O)C4)n3[C@@H](C)Cc3ccccc3)c2C1` [Compound 222], the IC50 was 0.01 to 0.1 µM.

For the molecule `COC(=O)N1CCc2ccc3c(nc([C@H]4CCC[C@@H](C(=O)O)C4)n3[C@@H](C)Cc3ccccc3)c2C1` (single isomer, unassigned) [Compound 13], the IC50 lay within 0.001 to 0.01 µM.

With `COC(=O)N1CCc2ccc3c(nc([C@H]4CC[C@H](C(=O)O)CC4)n3Cc3ccc(OC(F)F)cc3)c2C1` [Compound 171], the IC50 was in the range of 0.001 to 0.01 µM.

For the molecule `COC(=O)N1CCc2ccc3c(nc(C4CCC4)n3C[C@@H](C(=O)O)c3ccccc3)c2C1` [Compound 157], the IC50 was in the range of 0.001 to 0.01 µM.

As to `COC(=O)N1CCc2ccc3c(nc([C@H]4CC[C@](C)(C(=O)O)CC4)n3[C@H](CO)Cc3ccccc3)c2C1` [Compound 117], the half-maximal inhibitory concentration (IC50) is 0.001 to 0.01 µM.

For `COC(=O)N1CCc2ccc3c(nc(C4CCCCC4)n3[C@@H](C)C[C@H]3CC[C@H](C(=O)O)CC3)c2C1` [Compound 48], the IC50 lay in the range of 0.001 to 0.01 µM.

Consider `COC(=O)N1CCc2ccc3c(nc(C4CCCCC4)n3C[C@H]3CCCC[C@H]3C(=O)O)c2C1` [Compound 187], for which the IC50 fell in the range of 0.01 to 0.1 µM.

For `COC(=O)N1CCc2ccc3c(nc([C@H]4CC[C@@H](C(=O)O)C4)n3[C@H](C)Cc3ccccc3C)c2C1` [Compound 59], the IC50 fell in the range of 0.001 to 0.01 µM.

Turning to `COC(=O)N1CCc2ccc3c(nc([C@H]4CC[C@H](C(=O)O)CC4)n3[C@@H](C)C[C@]3(C)CC[C@H](OC)CC3)c2C1` [Compound 57], the IC50 was 0.001 to 0.01 µM.

As for `COC(=O)N1CCc2ccc3c(nc(C4CCCCC4)n3C[C@@H](C(=O)NS(C)(=O)=O)c3ccccc3)c2C1` (single isomer, unassigned) [Compound 138], the IC50 is 0.001 to 0.01 µM.

As to `COC(=O)N1CCc2ccc3c(nc(C4CCCCC4)n3C[C@H](CC(=O)O)c3cc(F)cc(F)c3)c2C1` [Compound 37], the IC50 was in the range of 0.001 to 0.01 µM.

Take `COC(=O)N1CCc2ccc3c(nc([C@H]4CC[C@](C)(C(=O)O)CC4)n3[C@H](C)Cn3cc(Cl)cn3)c2C1` [Compound 309]: the IC50 is 0.1 to 1 µM.

As to `COC(=O)N1CCc2ccc3c(nc(C4CCCCC4)n3CCc3ccc(F)c(C(=O)O)c3)c2C1` [Compound 160], the IC50 is 0.001 to 0.01 µM.

On to `COC(=O)N1CCc2ccc3c(nc([C@H]4CC[C@@H](S(=O)(=O)NC(C)=O)CC4)n3[C@H](C)Cc3ccccc3)c2C1` [Compound 162], for which the IC50 is 0.001 to 0.01 µM.

Consider `COC(=O)N1CCc2ccc3c(nc(N4CCCCC4)n3C[C@@H](CC(=O)O)c3ccccc3)c2C1` [Compound 47], for which the IC50 was in the range of 0.001 to 0.01 µM.

`COC(=O)N1CCc2ccc3c(nc([C@H]4CC[C@@H](C(=O)O)CC4)n3[C@@H](C)Cc3ccccc3)c2C1` [Compound 230]: the IC50 was in the range of 0.01 to 0.1 µM.

As for `COC[C@@H](Cc1ccccc1)n1c2ccc3c(c2nc1[C@H]1CC[C@H](C(=O)O)CC1)CN(C(=O)OC)CC3` [Compound 124], the IC50 is 0.001 to 0.01 µM.

Take `COC(=O)N1CCc2ccc3c(nc([C@H]4CC[C@H](C(=O)O)CC4)n3[C@H](C)[C@@H](O)c3ccccc3)c2C1` [Compound 146]: the IC50 is 0.001 to 0.01 µM.

Turning to `COC(=O)N1CCc2ccc3c(nc([C@H]4CC[C@H](C(=O)O)CC4)n3[C@H](C)C[C@H]3CCCOC3)c2C1` [Compound 275], the IC50 lay within 0.01 to 0.1 µM.

Consider “(3R)-4-[2-cyclohexyl-8-(methoxycarbonyl)-3H,6H,7H,8H,9H-imidazo[4,5-h]isoquinolin-3-yl]-3-(3-fluoro-5-methoxyphenyl)butanoic acid [Compound 194]”, for which the IC50 was 0.01 to 0.1 µM.

For `COC(=O)N1CCc2ccc3c(nc([C@H]4CC[C@H](C(=O)O)CC4)n3[C@H](C)C[C@H]3CCCCO3)c2C1` [Compound 179], the IC50 was 0.01 to 0.1 µM.

With `COC(=O)N1CCc2ccc3c(nc(C4CCN(C(C)=O)CC4)n3[C@H](C)Cc3cccnc3)c2C1` [Compound 346], the IC50 is 0.1 to 1 µM.

Regarding `COC(=O)N1CCc2ccc3c(nc([C@H]4CC[C@H](C(=O)O)CC4)n3[C@@H](C)Cc3ccccn3)c2C1` [Compound 141], the IC50 fell in the range of 0.001 to 0.01 µM.

Turning to `COC(=O)N1CCc2ccc3c(nc([C@H]4CC[C@H](C(=O)O)CC4)n3C[C@H]3CCc4ccccc4C3)c2C1` [Compound 169], the IC50 was in the range of 0.001 to 0.01 µM.

Consider `COC(=O)N1CCc2ccc3c(nc(C4CCCCC4)n3C[C@H](O)c3cccc(C(=O)O)c3)c2C1` [Compound 173], for which the IC50 lay in the range of 0.01 to 0.1 µM.

Take `COC(=O)N1CCc2c(C#N)cc3c(nc([C@H]4CC[C@H](C(=O)O)CC4)n3[C@H](C)Cc3ccccc3)c2C1` [Compound 269]: the IC50 lay in the range of 0.01 to 0.1 µM.

As to `COC(=O)N1CCc2ccc3c(nc([C@H]4CC[C@H](OC)CC4)n3C[C@@H](C(=O)O)c3ccccc3)c2C1` [Compound 123], the IC50 was 0.001 to 0.01 µM.

Take `COC(=O)N1CCc2ccc3c(nc(C4CCCCC4)n3C[C@@H](CC(=O)O)c3ccc(F)c(F)c3)c2C1` [Compound 21]: the IC50 is 0.001 to 0.01 µM.

Take `COC(=O)N1CCc2ccc3c(nc([C@H]4CC[C@H](C(=O)O)CC4)n3[C@H](C)Cc3ccc(C)c(F)c3)c2C1` (single isomer, unassigned) [Compound 283]: the IC50 was in the range of 0.01 to 0.1 µM.
